Data published in BigSolDB 2.1.

Conditions: 298.15 K

O=[N+]([O-])c1cccc2ccccc12
Conditions	solubility (mole fraction)
in 2-ethylhexanol	0.0411
in 2-methyl-1-butanol	0.0297
in 2-methyl-1-pentanol	0.0367
in 2-pentanol	0.0324
in 4-methyl-2-pentanol	0.0311
in MTBE	0.214
in acetonitrile	0.328
in benzene	0.423
in butyronitrile	0.383
in cyclohexane	0.025
in cyclooctane	0.036
in cyclopentanol	0.0599
in dibutyl ether	0.0996
in diethyl ether	0.237
in diisopropyl ether	0.104
in ethanol	0.0277
in ethylene glycol	0.00463
in isobutanol	0.0173
in isooctane	0.0163
in isopentanol	0.032
in isopropanol	0.0213
in methylcyclohexane	0.0277
in n-butanol	0.0348
in n-decane	0.0274
in n-decanol	0.0666
in n-heptane	0.0198
in n-heptanol	0.0539
in n-hexadecane	0.0394
in n-hexane	0.0174
in n-hexanol	0.0493
in n-nonane	0.0252
in n-octane	0.0223
in n-octanol	0.0593
in n-pentanol	0.0424
in n-propanol	0.0295
in propionitrile	0.37
in sec-butanol	0.0331
in tert-butanol	0.0228
in tert-butylcyclohexane	0.0303
in toluene	0.421
in undecane	0.0293
